From publication PMC12655637, “Design, Synthesis, and Mechanistic Study of Novel Ciprofloxacin/Thiazole Chalcone Hybrids as Potential Anticancer Agents” (Pharmaceuticals, 2025)

What was measured:
HOP-92 = assay: NCI-60 screening, one-dose (10 µM) and five-dose, SRB; assay type: cell-based, human; conditions: Homo sapiens; 10 μM; HOP-92, Non-Small-Cell Lung Cancer; read-out: Growth percentage
OVCAR-4 = assay: as above; assay type: cell-based, human; conditions: Homo sapiens; 10 μM; OVCAR-4, Ovarian Cancer; read-out: Growth percentage
SF-295 = assay: as above; assay type: cell-based, human; conditions: Homo sapiens; 10 μM; SF-295, CNS Cancer; read-out: Growth percentage
RPMI-8226 = assay: as above; assay type: cell-based, human; conditions: Homo sapiens
UACC-62 = assay: as above; assay type: cell-based; conditions: Homo sapiens; 10 μM; UACC-62, Melanoma; read-out: Growth percentage
UACC-257 = assay: as above; assay type: cell-based, human; conditions: Homo sapiens; 10 μM; UACC-257, Melanoma; read-out: Growth percentage
HCC-2998 = assay: as above; assay type: cell-based, human; conditions: Homo sapiens; 10 μM; HCC-2998, Colon Cancer; read-out: Growth percentage
KM12 = assay: as above; assay type: cell-based, human; conditions: Homo sapiens, KM12, 10 μM; KM12, Colon Cancer; read-out: Growth percentage
EKVX = assay: as above; assay type: cell-based, human; conditions: Homo sapiens, 10 μM, Non-Small-Cell Lung Cancer, read-out: Growth percentage
MDA-MB-435 = assay: as above; assay type: cell-based; conditions: Homo sapiens, MDA-MB-435, read-out: Growth percentage, 10 μM; MDA-MB-435, Melanoma
SNB-75 = assay: as above; assay type: cell-based, human; conditions: Homo sapiens; 10 μM; SNB-75, CNS Cancer; read-out: Growth percentage
HT29 = assay: as above; assay type: cell-based, human; conditions: Homo sapiens, HT-29; 10 μM; HT29, Colon Cancer; read-out: Growth percentage
786−0 = assay: as above; assay type: cell-based, human; conditions: Homo sapiens; 10 μM; 786−0, Renal Cancer; read-out: Growth percentage
TK-10 = assay: as above; assay type: cell-based, human; conditions: Homo sapiens; 10 μM; TK-10, Renal Cancer; read-out: Growth percentage
BT-549 = assay: as above; assay type: cell-based; conditions: Homo sapiens; 10 μM; BT-549, Breast Cancer; read-out: Growth percentage
DU-145 = assay: as above; assay type: cell-based, human; conditions: Homo sapiens; 10 μM; DU-145, Prostate Cancer; read-out: Growth percentage
SW-620 = assay: as above; assay type: cell-based, human; conditions: Homo sapiens; 10 μM; SW-620, Colon Cancer; read-out: Growth percentage
A498 = assay: as above; assay type: cell-based; conditions: Homo sapiens, A498, 10 μM; A498, Renal Cancer; read-out: Growth percentage
HCT-116 = assay: as above; assay type: cell-based, human; conditions: Homo sapiens
SK-OV-3 = assay: as above; assay type: cell-based, human; conditions: Homo sapiens; 10 μM; SK-OV-3, Ovarian Cancer; read-out: Growth percentage
ACHN = assay: as above; assay type: cell-based, human; conditions: Homo sapiens, 10 μM, Renal Cancer, read-out: Growth percentage
RXF 393 = assay: as above; assay type: cell-based; conditions: Homo sapiens; 10 μM; RXF 393, Renal Cancer; read-out: Growth percentage
MOLT-4 = assay: as above; assay type: cell-based, human; conditions: Homo sapiens; 10 μM; MOLT-4, Leukemia; read-out: Growth percentage
M14 = assay: as above; assay type: cell-based, human; conditions: Homo sapiens; 10 μM; M14, Melanoma; read-out: Growth percentage
NCI-H23 = assay: as above; assay type: cell-based, human; conditions: Homo sapiens; 10 μM; NCI-H23, Non-Small-Cell Lung Cancer; read-out: Growth percentage
SK-MEL-5 = assay: as above; assay type: cell-based, human; conditions: Homo sapiens; 10 μM; SK-MEL-5, Melanoma; read-out: Growth percentage
OVCAR-3 = assay: as above; assay type: cell-based; conditions: Homo sapiens; 10 μM; OVCAR-3, Ovarian Cancer; read-out: Growth percentage
[1] = test system: 60 human cancer cell lines; assay: NCI-60 screening, full panel (mean growth, MID a, ranges over all lines); conditions: Homo sapiens, read-out: Mean growth percentage
Description: The screening was performed in accordance with the protocols set forth by the Drug Evaluation Department of the National Cancer Institute (NCI), Bethesda, USA, for in vitro anticancer efficacy at a single concentration of 10 µM against a panel of 60 cancer cell lines derived from nine distinct organs (https://dctd.cancer.gov/data-tools-biospecimens/data (accessed on 15 March 2023 and 6 January 2024)) [37].
The log10 GI50, log10 TGI, and log10 LC50 values were subsequently calculated as the averages of the log10 values of the respective individual GI50, TGI, and LC50 measurements. Negative numbers signified the most sensitive cell lines.
One way to measure a compound’s selectivity is to divide its subpanel MID^b (in μM) by the MID^a (in μM), which is the average sensitivity of all cell lines to the test agent.
At the National Cancer Institute (NCI) in Bethesda, USA, researchers examined the anticancer potential of the target compounds under investigation using nine panels of sixty different cell lines obtained from nine different cancers that were housed in the NCI library. Following the protocols laid out by the National Cancer Institute (https://dctd.cancer.gov/data-tools-biospecimens/data (accessed on 15 March 2023 and 6 January 2024)), the screening procedures were carried out [37]. The anticancer screening was carried out at a single dose of 10^−5 M; the results obtained were expressed as growth inhibition (%).
The anti-cancer potential of the tested compounds was evaluated at the National cancer institute (NCI), Bethesda, USA, against 9 panels of 60 various cell lines derived from nine human tumours available usually at NCI library. The procedures for the screening were described in details in NCI website (dttp://www.dtp.nci.nih.gov.) and were done according to NCI protocols. The anticancer screening was carried out at single dose of 10^-5 M. The results obtained as growth inhibition (%).
Cell lines were grown in Roswell Park Memorial Institute medium (RPMI) with 5% fetal bovine serum and 2% μM L-glutamine. Cancer cells are inoculated into 96 well microtiter plates in 100 μL at plating densities ranging from 5000 to 40,000 cells/well depending on the doubling time of individual cell lines. Then microtiter plates are incubated at 37 °C, 5% CO2, 95% air and 100% relative humidity for 24 h prior to the addition of the tested compounds. After 24 h, two plates of each cell line are fixed in situ with trichloroacetic acid (TCA). The tested compounds were dissolved in dimethyl sulfoxide (DMSO) and stored in the freezer prior to use. An aliquot of frozen drug concentrate is diluted to the desired concentration with complete medium containing 50 μg/mL gentamicin.

## CC(=O)c1sc(SCC(=O)N2CCN(c3cc4c(cc3F)c(=O)c(C(=O)O)cn4C3CC3)CC2)nc1C [Compound 4a, 7-(4-(2-((5-Acetyl-4-methylthiazol-2-yl)thio)acetyl)piperazin-1-yl)-1-cyclopropyl-6-fluoro-4-oxo-1,4-dihydroquinoline-3-carboxylic Acid]
HOP-92
  activity at 10 µM: 105%
OVCAR-4
  activity at 10 µM: 95.1%
SF-295
  activity at 10 µM: 94.2%
RPMI-8226; RPMI-8226, 10 μM, RPMI-8226, Leukemia, read-out: Growth percentage
  activity at 10 µM: 133%
UACC-62
  activity at 10 µM: 104%
UACC-257
  activity at 10 µM: 102%
HCC-2998
  activity at 10 µM: 96.6%
KM12
  activity at 10 µM: 102%
EKVX
  activity at 10 µM: 104%
MDA-MB-435
  activity at 10 µM: 99.4%
SNB-75
  activity at 10 µM: 79.2%
HT29
  activity at 10 µM: 104%
786−0
  activity at 10 µM: 96.2%
TK-10
  activity at 10 µM: 97.9%
BT-549
  activity at 10 µM: 98.3%
DU-145
  activity at 10 µM: 95.3%
SW-620
  activity at 10 µM: 113%
A498
  activity at 10 µM: 104%
HCT-116; HCT-116, 10 μM, HCT-116, Colon Cancer, read-out: Growth percentage
  activity at 10 µM: 113%
SK-OV-3
  activity at 10 µM: 101%
ACHN
  activity at 10 µM: 98.3%
RXF 393
  activity at 10 µM: 91.7%
MOLT-4
  activity at 10 µM: 102%
M14
  activity at 10 µM: 104%
NCI-H23
  activity at 10 µM: 106%
SK-MEL-5
  activity at 10 µM: 89%
OVCAR-3
  activity at 10 µM: 98.8%
[1]
  activity at 10 µM: 102%

## COc1cccc(/C=C/C(=O)c2sc(SCC(=O)N3CCN(c4cc5c(cc4F)c(=O)c(C(=O)O)cn5C4CC4)CC3)nc2C)c1OC [Compound 4k, (E)-1-Cyclopropyl-7-(4-(2-((5-(3-(2,3-dimethoxyphenyl)acryloyl)-4-methylthiazol-2-yl)thio)acetyl)piperazin-1-yl)-6-fluoro-4-oxo-1,4-dihydroquinoline-3-carboxylic Acid]
HOP-92
  activity at 10 µM: 122%
OVCAR-4
  activity at 10 µM: 118%
SF-295
  activity at 10 µM: 97.4%
RPMI-8226; RPMI-8226, RPMI-8226
  IC50: 0.34 µM
UACC-62
  activity at 10 µM: 102%
UACC-257
  activity at 10 µM: 102%
HCC-2998
  activity at 10 µM: 76.8%
KM12
  activity at 10 µM: 4.4%
EKVX
  activity at 10 µM: 96.9%
MDA-MB-435
  activity at 10 µM: 53.2%
SNB-75
  activity at 10 µM: 100%
HT29
  activity at 10 µM: 82.6%
786−0
  activity at 10 µM: 96.9%
TK-10
  activity at 10 µM: 105%
BT-549
  activity at 10 µM: 63.3%
DU-145
  activity at 10 µM: 98%
SW-620
  activity at 10 µM: 90.7%
A498
  activity at 10 µM: 90.9%
HCT-116; colon HCT-116
  IC50: 0.34 µM
SK-OV-3
  activity at 10 µM: 76.7%
ACHN
  activity at 10 µM: 105%
RXF 393
  activity at 10 µM: 86.3%
MOLT-4
  activity at 10 µM: 80.4%
M14
  activity at 10 µM: 75.1%
NCI-H23
  activity at 10 µM: 87.9%
SK-MEL-5
  activity at 10 µM: 83%
OVCAR-3
  activity at 10 µM: 84.5%
[1]
  activity at 10 µM: 77.9%
